We go through nine compounds from PMC9953660, “Using ΔK280 TauRD Folding Reporter Cells to Screen TRKB Agonists as Alzheimer’s Disease Treatment Strategy” (Biomolecules, 2023).

The nature of one data set: MTT cell viability assay. It counts as cell-based. Particulars: human. The protocol: Human neuroblastoma SH-SY5Y cells with inducible ΔK280 TauRD-DsRed expression were maintained in DMEM/F-12 supplemented with fetal bovine serum (FBS, 10%) (Thermo Scientific, Waltham, MA, USA), penicillin/streptomycin (100 U/mL), selection antibiotics hygromycin (100 μg/mL) and blasticidin (5 μg/mL) (InvivoGen, San Diego, CA, USA), and 1.5 g/l sodium bicarbonate. Cells were cultured at 37 °C in a 5% CO2 atmosphere. The cell viability of ZN and VB compounds (concentration range: 0.1–100 μM) was evaluated by a 3-(4,5-dimethylthiazol-2-yl)-2,5-diphenyltetrazolium bromide (MTT; Sigma-Aldrich) colorimetric assay. The absorbance at 570 nm was recorded by a Multiskan™ GO Microplate Spectrophotometer (Thermo Scientific).
For orientation: Tetrazolium assays rely on reduction of a dye to a coloured formazan, in cell work by metabolically active cells.

Data set [1] in a line: Cell number / cell survival in induced ΔK280 TauRD-DsRed SH-SY5Y cells (high-content). Particulars: human; induced SH-SY5Y cells expressing ΔK280 TauRD-DsRed for 6 days, 2–10 μM tested; read-out: IC50 cytotoxicity based on cell number. Type of data set: cell-based, human. The protocol: (§1) ΔK280 TauRD-DsRed SH-SY5Y cells were plated in the presence of 10 μM retinoid acid (RA; Sigma-Aldrich) to promote neuronal differentiation. The next day, cells were added with congo red or ZN/VB compounds (2–10 μM) for 8 h pretreatment, followed by inducing ΔK280 TauRD-DsRed expression with doxycycline (2 μg/mL). On day 8, cell nuclei were stained with Hoechst 33342 (0.1 μg/mL; Thermo Scientific), and cell images acquired using ImageXpress Micro Confocal High-Content Imaging System (Molecular Devices, San Jose, CA, USA) with DAPI (4′,6-diamidino-2-phenylindole, for nuclei) and TRITC (tetramethylrhodamine, for DsRed) fluorescence filter sets. To detect ROS changes, 10 μM compound-treated cells were stained with Hoechst 33342 and 2′,7′-dichlorodihydrofluorescein diacetate (H2DCFDA, 10 μM) fluorescein (Invitrogen, Carlsbad, CA, USA), and cell images captured using DAPI and FITC (fluorescein isothiocyanate, for DCF) filters. For assessing differential neurite outgrowth, 10 μM compound-treated cells were fixed (paraformaldehyde, 4%), permeabilized (Triton X-100, 0.3%), and stained with class III β-tubulin (TUBB3, 1:1000) primary antibody (#802001, BioLegend, San Diego, CA, USA), followed by donkey anti-rabbit Alexa Fluor® 555 secondary antibody (1:1000; #A-31572, Invitrogen) and DAPI (0.1 μg/mL; Sigma-Aldrich) stains. The nuclei and neurite images were acquired with DAPI and TRITC fluorescence filters, respectively. All analyses of images were performed using MetaXpress software (Molecular Device).

Data set [2] has as its system SH-SY5Y cells expressing ΔK280 TauRD-DsRed. The data set is described as above. It counts as cell-based, human. The following applies: induced ΔK280 TauRD-DsRed SH-SY5Y, 2–10 μM. The method, then:
as §1

The target of data set [3] is T1, TRKB extracellular domain (TRKB-ECD) (Homo sapiens, UniProt Q16620).
T1 construct: TRKB-ECD (marked in red, C^32-E^429, XP_016870240); His (C); made in house; host or cells: Pichia pastoris
T1 sequence (Q16620 32-429): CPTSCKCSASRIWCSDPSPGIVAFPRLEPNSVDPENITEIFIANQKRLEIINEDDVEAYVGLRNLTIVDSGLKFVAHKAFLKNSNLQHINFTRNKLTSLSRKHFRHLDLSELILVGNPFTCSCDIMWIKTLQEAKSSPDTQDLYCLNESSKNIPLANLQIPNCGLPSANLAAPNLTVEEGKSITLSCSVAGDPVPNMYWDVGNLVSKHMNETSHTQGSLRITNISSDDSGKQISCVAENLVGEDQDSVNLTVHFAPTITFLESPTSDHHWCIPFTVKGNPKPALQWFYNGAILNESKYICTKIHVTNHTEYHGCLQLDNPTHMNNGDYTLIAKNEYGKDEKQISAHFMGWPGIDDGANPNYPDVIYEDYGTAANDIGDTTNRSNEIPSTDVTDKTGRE
The experiment in a line: Tryptophan fluorescence quenching assay. Particulars: Pichia pastoris-expressed TRKB-ECD, 0–1000 nM, excitation 295 nm, emission 330 nm, room temperature; read-out: KD (TRKB-ECD binding affinity). The protocol: The interaction between the N-terminal extracellular domain of TRKB (TRKB-ECD) and 7,8-DHF (as positive control; [35]), ZN-015, VB-030 or VB-037 was evaluated with tryptophan fluorescence titration. TRKB-ECD-His protein was expressed in the Pichia expression system (Invitrogen) and purified as stated. Intrinsic tryptophan fluorescence spectra with titration of a different concentration of compounds (0–1000 nM) were recorded by fluorescence spectrophotometer F-7000 (Hitachi, Tokyo, Japan), with excitation wavelength 295 nm and emission wavelength in the range of 300–400 nm. The calculation of dissociation constant (KD) between the 7,8-DHF or ZN/VB compound and TRKB was described in a previous report.

The target in data set [4] is T1, TRKB extracellular domain (TRKB-ECD). Also on record: method as in PMID 25143381. Particulars: read-out: KD (TRKB-ECD binding affinity), reported value; cited from earlier work.
A further data set addresses T2, ΔK280 TauRD-DsRed (Homo sapiens, UniProt P10636, DEL597-597).
T2 construct: TauRD (Q^244-E^372 of Tau, NP_005901) aggregation; expressed in transfected cells; host or cells: SH-SY5Y (Tet-On, doxycycline-inducible)
The experiment in a line: High-content DsRed fluorescence assay of ΔK280 TauRD-DsRed folding reporter cells. It counts as cell-based. The following applies: 10 μM; untreated cells = 100%; 8 h pretreatment, 6 day Dox induction. The protocol: as §1, with “For assessing differential neurite outgrowth, 10 μM compound-treated cells were fixed (paraformaldehyde, 4%), permeabilized (Triton X-100, 0.3%), and stained with class III β-tubulin (TUBB3, 1:1000) primary antibody (#802001, BioLegend, San Diego, CA, USA), followed by donkey anti-rabbit Alexa Fluor® 555 secondary antibody (1:1000; #A-31572, Invitrogen) and DAPI (0.1 μg/mL; Sigma-Aldrich) stains.” left out, “All analyses of images were performed using MetaXpress software (Molecular Device).” left out

Data set [5] concerns the target T3, E. coli-expressed ΔK280 TauRD protein (Homo sapiens, UniProt P10636, DEL597-597).
T3 construct: TauRD (Q^244-E^372 of Tau, NP_005901) aggregation; N-terminal Met (N); made in house; host or cells: E. coli
Kind of data set: Thioflavin T fluorescence ΔK280 TauRD aggregation assay. The following applies: TauRD protein 20 μM, 48 h at 37 °C; read-out: EC50 inhibiting ΔK280 TauRD aggregation. Type of data set: biochemical. The protocol:
The anti-aggregation activity of congo red (positive control) and ZN/VB compounds (5–20 μM) was assessed using E. coli-expressed ΔK280 TauRD protein [33] and thioflavin T (Sigma-Aldrich) fluorescence assay. The trend of ΔK280 TauRD amyloid aggregate formation depicted with enhanced and red-shifted fluorescence was recorded by a FLx800 microplate fluorescence reader (BioTek Instruments), where the procedure was previously reported in detail.

The test system of data set [6] is ROS in ΔK280 TauRD-DsRed SH-SY5Y cells. The experiment in a line: High-content assessment of cellular ROS (H2DCFDA). Type of data set: cell-based, human. Particulars: 10 μM; uninduced = 100%, induced untreated 123%; range over compounds. The method, then:
as §1, with “For assessing differential neurite outgrowth, 10 μM compound-treated cells were fixed (paraformaldehyde, 4%), permeabilized (Triton X-100, 0.3%), and stained with class III β-tubulin (TUBB3, 1:1000) primary antibody (#802001, BioLegend, San Diego, CA, USA), followed by donkey anti-rabbit Alexa Fluor® 555 secondary antibody (1:1000; #A-31572, Invitrogen) and DAPI (0.1 μg/mL; Sigma-Aldrich) stains.” left out, “All analyses of images were performed using MetaXpress software (Molecular Device).” left out

The nature of data set [7]: DPPH free-radical scavenging assay. Particulars: 10–160 μM, compared to kaempferol. It counts as physicochemical. The method, then: Free-radical scavenging activity of kaempferol (positive control) and ZN/VB compounds (10–160 μM) was measured using a 1,1-diphenyl-2-picrylhydrazyl (DPPH; Sigma-Aldrich) photometric assay as stated. The absorbance at 517 nm was assessed by a Multiskan™ GO Microplate Spectrophotometer (Thermo Scientific). An oxygen radical absorbance capacity (ORAC) assay of kaempferol and ZN/VB compounds (4–100 μM) was conducted according to the manufacturer’s instructions (OxiSelect™; Cell Biolabs, San Diego, CA, USA). The decrease of fluorescence intensity was monitored by a FLx800 microplate fluorescence reader (BioTek Instruments, Winooski, VT, USA). The ORAC activity was quantified as a trolox-equivalent antioxidant capacity.
(DPPH is a stable violet radical that fades when it is reduced.)

Where two headings read alike, the source gives them in different places.

T3 sequence (P10636 with tags, fused parts or gaps isoform P10636-8 DEL280-280): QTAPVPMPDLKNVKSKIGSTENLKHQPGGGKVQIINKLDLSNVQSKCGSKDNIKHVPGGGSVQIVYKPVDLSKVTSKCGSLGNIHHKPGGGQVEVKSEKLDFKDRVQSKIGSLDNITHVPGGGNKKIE
T2 sequence (P10636 with tags, fused parts or gaps isoform P10636-8 DEL280-280): as above

`Cc1ccc2[nH]c(=O)c(C(=O)/C=C/c3nc4ccccc4[nH]3)c(-c3ccccc3)c2c1` [VB-031, (E)-3-(3-(1H-benzo[d]imidazol-2-yl)acryloyl)-6-methyl-4-phenylquinolin-2(1H)-one]: the IC50 (usually the concentration that inhibits the measured activity by half) at 24 h in “MTT cell viability assay” stood at 6 µM. In addition, the IC50 at 6 days in [1] is under 2 µM. Moreover, the “percentage of cell survival” value in data set [2] is on record as “less than 75%”.

`CCOC(=O)c1cc2c(O)cccc2oc1=O` [ZN-014, ethyl 5-hydroxy-2-oxo-2H-chromene-3-carboxylate]: the IC50 at 24 h in “MTT cell viability assay” (uninduced ΔK280 TauRD-DsRed SH-SY5Y, 0.1–100 μM, 24 h, read-out: IC50 cytotoxicity (MTT)) was over 100 µM. Also, in [1], the IC50 at 6 days is over 10 µM.

In the case of `O=c1cc(-c2ccccc2)oc2c(O)c(O)ccc12` [7,8-DHF, 7,8-dihydroxy flavone, reference compound], the Kd (usually the equilibrium constant for the complex coming apart) in [3] is 0.0134 ± 0.0084 µM; in data set [4], 0.0121 ± 0.0016 µM.

Consider `O=C(O)COc1cc(O)c2c(=O)cc(-c3ccccc3)oc2c1` [ZN-006, 2-((5-hydroxy-4-oxo-2-phenyl-4H-chromen-7-yl)oxy)acetic acid], for which, in “MTT cell viability assay”, the IC50 at 24 h was over 100 µM. The IC50 at 6 days in data set [1] is over 10 µM.

`COc1cccc2oc(C(=O)c3ccccc3)cc12` [ZN-013, (4-methoxybenzofuran-2-yl)(phenyl)methanone]: the IC50 at 24 h in “MTT cell viability assay” was over 100 µM. In addition, in data set [1], the IC50 at 6 days is 27 µM.

With `Nc1c(/N=N/c2ccc(-c3ccc(/N=N/c4cc(S(=O)(=O)O)c5ccccc5c4N)cc3)cc2)cc(S(=O)(=O)O)c2ccccc12` [congo red, Congo red, reference compound], the DsRed fluorescence on ΔK280 TauRD-DsRed is 114%. The IC50 at 6 days in data set [1] was over 10 µM. In addition, in data set [5], the EC50 (commonly the concentration at which the effect is half-maximal) came out at 13.9 µM.

In the data set “MTT cell viability assay”, `Cc1ccc(-c2cc(-c3ccncc3)nc3ccccc23)cc1` [VB-030, 2-(pyridin-4-yl)-4-(p-tolyl)quinoline] returned an IC50 at 24 h of over 100 µM. Besides, in [1], the IC50 at 6 days was over 10 µM. In addition, the EC50 in [5] stood at 20.3 µM. Besides, in data set [3], the Kd amounted to 0.011 ± 0.0024 µM.

Compound `O=C(Nc1cccc(S(=O)(=O)NC2=NCCCCC2)c1)c1cc(-c2ccncc2)nc2ccccc12` [VB-041, 2-(pyridin-4-yl)-N-(3-(N-(3,4,5,6-tetrahydro-2H-azepin-7-yl)sulfamoyl)phenyl)quinoline-4-carboxamide] yielded an IC50 at 24 h in “MTT cell viability assay” of over 100 µM. The IC50 at 6 days in [1] is over 10 µM.

The compound `O=[N+]([O-])c1cccc2nc(/C=C/c3cc4ccccc4nc3N3CCOCC3)ccc12` [VB-037, (E)-4-(3-(2-(5-nitroquinolin-2-yl)vinyl)quinolin-2-yl)morpholine] gave an IC50 at 24 h in “MTT cell viability assay” of over 100 µM. Besides, the IC50 at 6 days in data set [1] came out at 23 µM. Also, the “ROS level (DCF fluorescence)” value in data set [6] is on record as “no effect on reducing ROS”. Also, the EC50 in data set [5] came to 13.1 µM. The “DPPH free radical scavenging activity” value in data set [7] is listed as “very weak DPPH free radical scavenging activity”. The Kd in [3] worked out at 0.0043 ± 0.0052 µM.
